Blank lines part the entries; values can stand above or below the compound they belong to.
What was measured:
[1] = target: T1, Glycylpeptide N-tetradecanoyltransferase (Plasmodium falciparum, UniProt Q9U419); assay: Inhibition of recombinant Plasmodium falciparum NMT
T1 sequence (Q9U419 whole entry): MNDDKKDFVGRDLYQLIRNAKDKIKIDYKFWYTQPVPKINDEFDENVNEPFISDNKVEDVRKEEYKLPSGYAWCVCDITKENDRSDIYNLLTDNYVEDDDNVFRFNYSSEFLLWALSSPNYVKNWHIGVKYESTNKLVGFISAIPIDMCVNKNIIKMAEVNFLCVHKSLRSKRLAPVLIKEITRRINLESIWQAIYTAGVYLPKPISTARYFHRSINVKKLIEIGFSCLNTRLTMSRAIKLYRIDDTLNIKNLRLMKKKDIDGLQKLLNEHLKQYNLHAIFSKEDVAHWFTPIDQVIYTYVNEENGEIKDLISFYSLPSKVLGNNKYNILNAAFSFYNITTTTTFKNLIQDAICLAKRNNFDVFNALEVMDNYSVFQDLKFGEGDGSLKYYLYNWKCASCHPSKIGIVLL

[2] = target: T2, Glycylpeptide N-tetradecanoyltransferase 1 (Homo sapiens, UniProt P30419); assay: Inhibition of recombinant human NMT
T2 sequence (P30419 whole entry): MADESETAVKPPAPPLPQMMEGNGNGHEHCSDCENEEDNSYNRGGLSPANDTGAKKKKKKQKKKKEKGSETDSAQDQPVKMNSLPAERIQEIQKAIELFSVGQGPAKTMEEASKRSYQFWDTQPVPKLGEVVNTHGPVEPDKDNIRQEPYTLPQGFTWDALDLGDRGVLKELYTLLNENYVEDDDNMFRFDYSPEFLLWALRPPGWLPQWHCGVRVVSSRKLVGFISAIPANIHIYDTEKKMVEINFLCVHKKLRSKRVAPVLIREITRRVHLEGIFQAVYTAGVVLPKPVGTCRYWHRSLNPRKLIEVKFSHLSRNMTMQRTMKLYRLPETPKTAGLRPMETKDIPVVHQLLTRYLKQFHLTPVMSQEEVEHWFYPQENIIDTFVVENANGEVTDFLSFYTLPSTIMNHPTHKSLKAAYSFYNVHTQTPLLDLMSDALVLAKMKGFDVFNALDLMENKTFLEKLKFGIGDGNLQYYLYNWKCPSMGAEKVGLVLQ

[3] = target: T3, Glycylpeptide N-tetradecanoyltransferase (Plasmodium vivax (strain Salvador I), UniProt A5K1A2); assay: Inhibition of recombinant Plasmodium vivax NMT
T3 sequence (A5K1A2 whole entry): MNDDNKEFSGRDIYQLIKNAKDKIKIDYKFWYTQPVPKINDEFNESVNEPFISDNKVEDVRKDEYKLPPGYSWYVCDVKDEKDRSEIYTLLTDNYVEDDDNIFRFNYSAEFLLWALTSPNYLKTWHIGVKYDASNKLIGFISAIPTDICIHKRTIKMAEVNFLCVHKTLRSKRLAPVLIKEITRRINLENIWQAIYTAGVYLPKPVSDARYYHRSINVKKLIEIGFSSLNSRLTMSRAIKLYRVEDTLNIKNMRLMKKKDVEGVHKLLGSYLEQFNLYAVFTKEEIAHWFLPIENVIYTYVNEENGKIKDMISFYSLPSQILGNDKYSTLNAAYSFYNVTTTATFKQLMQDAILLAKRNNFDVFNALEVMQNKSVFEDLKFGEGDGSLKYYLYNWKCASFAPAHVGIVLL

[4] = target: T1, Glycylpeptide N-tetradecanoyltransferase; assay: Binding affinity to Plasmodium falciparum NMT assessed as inhibition constant using GSNKSKPKDASQRRR-NH2 as peptide substrate
[5] = target: T3, Glycylpeptide N-tetradecanoyltransferase; assay: Binding affinity to Plasmodium vivax NMT assessed as inhibition constant using YnMyr-CoA as substrate
[6] = Inhibition of full length Brugia malayi NMT expressed in Escherichia coli incubated for 10 mins by liquid scintillation analysis
[7] = Inhibition of full length Caenorhabditis elegans NMT expressed in Escherichia coli incubated for 10 mins by liquid scintillation analysis

IC50 [1]: 24300 nM | IC50 [2]: 60 nM | IC50 [3]: 680 nM
SMILES: NCCCCCCCCCC(=O)N[C@@H](CO)C(=O)N[C@@H](CCCCN)C(=O)NCCC1CCCCC1

Ki [4]: 8 nM | Ki [5]: 2.7 nM
SMILES: Cc1nn(C)c(C)c1Cc1nnc(-c2sc3ccccc3c2NC2CCNCC2)o1

IC50 [6]: 2000 nM | IC50 [7]: 10 nM
SMILES: Cc1nn(C)c(CC(C)C)c1NS(=O)(=O)c1c(Cl)cc(-c2cccc(C(C)(C)N)c2)cc1Cl
